Measurements: US20150094264A1, “USE OF OBESTATIN FOR MUSCLE REGENERATION” (UNIVERSIDADE DE SANTIAGO DE COMPOSTELA, priority 2012, published 2015)

Columns and labels:
[1] = test system: tibialis anterior muscle in mice where the sciatic nerve has been denervated; test: Weight reduction of tibialis anterior after denervation of the sciatic nerve (model of muscular atrophy); type: in vivo, Swiss mice; conditions: 300 nmol/kg weight local, 14 days
Procedure: FIG. 14. Analysis of the weight reduction of the tibialis anterior muscle in mice where the sciatic nerve has been denervated (model of muscular atrophy) under the exogenous administration of obestatin or vehicle (PBS). Swiss mice were used whereon the sciatic nerve was denervated in one of the limbs, using the other as control. The effect of the administration of obestatin (300 nmol/kg weight) or the vehicle (PBS; control) was assessed in the tibialis anterior muscle after 14 days. The data are expressed as % of weight reduction with respect to the control without denervation (n=5 per group; mean±standard error; *, p<0.005).
To study muscular atrophy, the sciatic nerve was denervated using Swiss mice. The denervation of the sciatic nerve was performed under anaesthesia, making an incision in the mid thigh on the lateral face of the rear right limb, separating the muscles and raising the sciatic nerve with surgical forceps. A portion of the nerve was isolated removing a fragment thereof. Finally the incision was closed. These animals were locally administered an injection of obestatin (300 nmol/kg weight) or the corresponding vehicle (PBS; control) in intervals of 24 h during 14 days.

[2] = test system: skeletal muscle tissue (gastrocnemius and soleus) in male rats; test: Chronic administration by osmotic mini-pumps: myogenic markers in gastrocnemius and soleus of rat, immunoblot; type: in vivo, Sprague-Dawley rats; conditions: 300 nmol/kg body weight/24 h s.c. infusion, 72 h
Procedure: FIG. 7. Effect of the chronic administration of obestatin on the myogenic markers in the gastrocnemius and soleus of rat (animal model). Effect of the administration during 72 hours of obestatin (300 nmol/kg/24 h; 72 h) by the implantation of mini-pumps on early and later markers of myogenesis in skeletal muscle tissue (gastrocnemius and soleus) in male rats. A: Western-blot analysis. First column: control; second column: treatment with obestatin. B: Protein levels in gastrocnemius. White column: control; grey column: treatment with obestatin. The protein levels are expressed as % of the control obtained from the group of animals with implantation of mini-pumps with saline (n=10 per group; mean±standard error; *, p<0.05). C: Protein levels in soleus. White column: control; grey column: treatment with obestatin. The protein levels are expressed as % of the control obtained from the group of animals with implantation of mini-pumps with saline (n=10 per group; mean±standard error; *, p<0.05).
The tissue or cell samples were directly lysed in RIPA buffer [Tris-HCl (pH 7.2), 50 mM; NaCl, 150 mM; EDTA, 1 mM; NP-40, 1% (v/v); Sodium deoxycholate, 0.25% (w/v); protease inhibitors (Sigma); phosphatise inhibitors (Sigma)]. The lysates were clarified by centrifugation (14,000×g during 15 min at 4° C.) and the protein concentration was quantified using QuantiPro™ BCA assay kit (Sigma). For immunoblot, equal amounts of protein were loaded which were fractionated in SOS-PAGE gels and transferred to nitrocellulose membranes. The immunoreactive bands were detected by chemiluminescence (Pierce ECL Western Blotting Substrate; Thermo Scientific, Ill., USA).
Two animal models were used for the in vivo assays: Sprague-Dawley rats and Swiss mice. The Sprague-Dawley (250 g; n=20) rats were maintained in 12 h light-darkness cycled with free access to standard diet and water. The Alzet® mini-pumps (model 1003D) were subcutaneously implanted. The animals were assigned to one of the two experimental groups (n=10/group): 1) control group (mini-pumps with saline); and, 2) obestatin group (mini-pumps implanted containing 300 nmol/kg weight/24 h). These mini-pumps allow a diffusion flow of 1 microL/h. After 72 h, the rats were sacrificed by cervical dislocation under anaesthetic treatment, and soleus and gastrocnemius tissues were extracted for immunoblot analysis.
Based on the short mean life of obestatin in plasma, osmotic mini-pumps were used for the in vivo administration of this peptide. Two groups of male rats were worked with: a group of 10 male rats received the continuous subcutaneous infusion of obestatin during 72 h (300 nmol/kg body weight/24 h); and another group of 10 rats received the equivalent volume of PBS during 72 h. The animals were sacrificed and the gastrocnemius and soleus muscles were removed and processed to analyse the expression of key factors of muscular differentiation by immunoblot. […] The increase in both types of muscle of the family of regulatory factors of different stages in myogenesis show a clear muscle regenerative capacity for obestatin.

L6E9 myoblasts = test: Cicatrization capacity (migration/invasion) in L6E9 myoblasts; type: cell-based, rat; conditions: obestatin 5 nM
Procedure: FIG. 6. Evaluation of the cicatrization capacity (migration/invasion) of obestatin in L6E9 myoblasts. A: the L6E9 myoblasts grew to 100% of confluence in GM and later the damage was induced with a sterile pipette. The cells were maintained in GM or GM-obestatin (5 nM) during 8 and 24 hours after the induction of cell damage (40× magnification). B: quantification of the % of cicatrization (mean±standard error; *, p<0.05).
The L6E9 cells were cultured until reaching a confluence of 100% in GM. Having reached said confluence, the damage was produced by the use of a sterile pipette point which made it possible to perform two linear and perpendicular channels. After the damage, the cells were washed and cultured with GM or GM+obestatin (5 nM). The progress of the migration was immediately photographed after the damage and at 8 and 24 hours, close to the crossing point. The “invaded” area was calculated by tracing the “cicatrization” edge and using ImageJ64 software. The percentage of cicatrization was calculated based on the following equation:% cicatrization=[(area 0 h−area xh)/area 0 h]×100.

Substance: obestatin
- loss of tibialis anterior muscle mass (weight) in relation to vehicle (PBS) controls [1]: reduces the loss of muscle mass
- MHC protein levels in relation to control rats ([2]; gastrocnemius and soleus): significantly increased
- Myf5 protein levels in relation to control rats ([2]; gastrocnemius and soleus): significantly increased
- Myf6 protein levels in relation to control rats ([2]; gastrocnemius and soleus): significantly increased
- MyoD protein levels in relation to control rats ([2]; gastrocnemius and soleus): significantly increased
- Pax-7 protein levels in relation to control rats ([2]; gastrocnemius and soleus): significantly increased
- myogenin protein levels in relation to control rats ([2]; gastrocnemius and soleus): significantly increased
- Six-1 protein levels in relation to control rats ([2]; gastrocnemius): no effect at all
- Six-1 protein levels in relation to control rats ([2]; soleus): significant increased
- increase of migration index (cicatrization) in relation to control cells (L6E9 myoblasts; 8 hours after inducing cell damage): 53%
- increase of migration index (cicatrization) in relation to control cells (L6E9 myoblasts; 24 hours after inducing cell damage): 21%
